Assay results as given in US5688938A, “Calcium receptor-active molecules” (priority 1995, dated 1997).
Entries after “also recorded” stand apart in the source; their conditions may differ. Read-outs that look alike come from different tables or passages of the source.

What was measured:
Assay type in all cases: cell-based
[1] = test system: osteoclast calcium receptor; assay: [Ca^2+]i (indo-1) in rat osteoclasts
C-cell calcium receptor = target: T1, C-cell calcium receptor (Rattus norvegicus, UniProt P48442); assay: cell-based; details: for EC50: rMTC 6-23 cells
T1 construct: Neoplastic C-cells derived from a rat medullary thyroid carcinoma (rMTC 6-23) were obtained from American Type Culture Collection; host or cells: rMTC 6-23 cells
T1 sequence (P48442 20-1079): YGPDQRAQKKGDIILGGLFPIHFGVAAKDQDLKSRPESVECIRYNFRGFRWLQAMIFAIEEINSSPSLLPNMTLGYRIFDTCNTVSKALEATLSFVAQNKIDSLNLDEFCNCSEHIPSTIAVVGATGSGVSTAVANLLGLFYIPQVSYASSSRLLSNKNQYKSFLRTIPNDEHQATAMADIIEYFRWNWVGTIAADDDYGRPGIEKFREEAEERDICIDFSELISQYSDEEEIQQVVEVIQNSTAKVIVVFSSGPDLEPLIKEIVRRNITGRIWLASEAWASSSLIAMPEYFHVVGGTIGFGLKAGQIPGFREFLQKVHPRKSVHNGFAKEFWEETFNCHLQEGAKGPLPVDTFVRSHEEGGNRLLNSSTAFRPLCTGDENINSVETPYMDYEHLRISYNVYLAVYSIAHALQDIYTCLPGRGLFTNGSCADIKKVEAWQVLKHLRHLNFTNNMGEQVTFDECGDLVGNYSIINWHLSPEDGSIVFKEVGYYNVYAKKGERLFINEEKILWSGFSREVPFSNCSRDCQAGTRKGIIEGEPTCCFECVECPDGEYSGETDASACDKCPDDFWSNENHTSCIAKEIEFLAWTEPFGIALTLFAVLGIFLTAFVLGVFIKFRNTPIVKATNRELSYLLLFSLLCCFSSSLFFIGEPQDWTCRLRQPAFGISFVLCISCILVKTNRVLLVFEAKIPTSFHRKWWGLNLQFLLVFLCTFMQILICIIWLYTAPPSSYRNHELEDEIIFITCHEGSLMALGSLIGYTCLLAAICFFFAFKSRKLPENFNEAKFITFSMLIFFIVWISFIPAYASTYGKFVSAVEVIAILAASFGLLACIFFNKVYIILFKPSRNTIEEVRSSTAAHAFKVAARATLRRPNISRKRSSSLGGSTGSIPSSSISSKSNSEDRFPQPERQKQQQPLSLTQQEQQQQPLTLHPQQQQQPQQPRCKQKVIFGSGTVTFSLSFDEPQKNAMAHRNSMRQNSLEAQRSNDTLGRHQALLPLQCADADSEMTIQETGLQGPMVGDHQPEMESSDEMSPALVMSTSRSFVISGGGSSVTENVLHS
Description: To assess the effects of molecular polycations on C-cells, a neoplastic cell line, derived from a rat medullary thyroid carcinoma (rMTC 6-23 cells) was used.

[2] = target: T2, parathyroid cell calcium receptor (Bos taurus, UniProt P35384); assay: cell-based
T2 sequence (P35384 21-1085 limits assumed): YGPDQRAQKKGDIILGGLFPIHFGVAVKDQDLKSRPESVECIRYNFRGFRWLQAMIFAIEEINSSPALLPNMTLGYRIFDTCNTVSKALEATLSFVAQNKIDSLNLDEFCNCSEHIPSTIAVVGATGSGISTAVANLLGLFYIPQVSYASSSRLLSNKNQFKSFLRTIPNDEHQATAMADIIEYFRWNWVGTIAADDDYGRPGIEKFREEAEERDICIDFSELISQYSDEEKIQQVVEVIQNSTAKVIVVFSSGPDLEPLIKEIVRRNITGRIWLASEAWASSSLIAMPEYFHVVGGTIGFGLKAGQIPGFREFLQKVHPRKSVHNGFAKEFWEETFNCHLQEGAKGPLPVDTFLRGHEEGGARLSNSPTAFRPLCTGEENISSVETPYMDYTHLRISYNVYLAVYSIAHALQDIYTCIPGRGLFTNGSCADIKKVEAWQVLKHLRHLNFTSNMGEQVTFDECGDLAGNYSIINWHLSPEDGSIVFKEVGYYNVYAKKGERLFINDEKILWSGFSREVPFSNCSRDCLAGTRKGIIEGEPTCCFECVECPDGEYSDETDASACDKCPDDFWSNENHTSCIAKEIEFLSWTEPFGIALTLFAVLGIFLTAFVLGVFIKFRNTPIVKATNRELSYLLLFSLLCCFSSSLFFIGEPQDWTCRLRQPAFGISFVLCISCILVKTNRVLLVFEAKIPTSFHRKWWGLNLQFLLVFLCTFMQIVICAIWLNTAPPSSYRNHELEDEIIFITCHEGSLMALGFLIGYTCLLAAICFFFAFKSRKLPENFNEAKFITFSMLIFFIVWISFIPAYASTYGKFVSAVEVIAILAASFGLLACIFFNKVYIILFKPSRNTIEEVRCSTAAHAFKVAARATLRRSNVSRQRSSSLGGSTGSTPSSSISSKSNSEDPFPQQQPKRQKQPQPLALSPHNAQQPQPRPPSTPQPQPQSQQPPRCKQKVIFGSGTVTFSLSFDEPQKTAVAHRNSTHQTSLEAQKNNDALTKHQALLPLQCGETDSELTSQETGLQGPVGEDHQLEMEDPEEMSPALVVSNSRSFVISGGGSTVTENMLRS

## NC[C@@H]1O[C@H](O[C@H]2[C@@H](O)[C@H](O[C@@H]3[C@@H](O)[C@H](N)C[C@H](N)[C@H]3O[C@H]3O[C@H](CN)[C@@H](O)[C@H](O)[C@H]3N)O[C@@H]2CO)[C@H](N)[C@@H](O)[C@@H]1O [Neomycin]
[1]
  effect on osteoclast response to extracellular Ca^2+: did not block the increase
  increase in [Ca^2+]i in osteoclasts: failed to evoke any increase in [Ca^2+ ]i; also recorded: Neither neomycin (10 mM) nor spermine (10 or 20 mM) caused increases
[1]; neomycin B 5 mM
  increase in [Ca^2+]i in osteoclasts or effect on basal: without effect on basal [Ca^2+ ]i
C-cell calcium receptor
  effect on basal [Ca^2+]i in C-cells: without effect on basal [Ca^2+ ]i

## NCCCNCCCCNCCCNCCCNCCCNC(=O)Cc1c[nH]c2ccccc12 [NPS 019, reference compound]
[1]; Table 6, rat osteoclasts
  EC50: > 300 µM
C-cell calcium receptor; 10 μM, 0.5 mM [Ca^2+]
  transient increase in [Ca^2+]i in C-cells: refractory to inhibition by La^3+
C-cell calcium receptor; Table 6, read-out: EC50 C-CELL
  EC50: 5 µM
C-cell calcium receptor; read-out: EC50 for mobilizing intracellular Ca^2+ in C-cells
  EC50: 5 µM
[2]; Table 6, bovine parathyroid cells, read-out: EC50 PARATHYROID
  EC50: 40 µM

## COc1cccc([C@@H](C)NCCCc2ccccc2Cl)c1 [NPS R-568, (R)-(+)-N-[3-(2-chlorophenyl)propyl]-α-methyl-3-methoxybenzylamine]
[2]; no extracellular Ca^2+, NPS R-467 30 μM
  [Ca^2+]i response in Ca^2+-free buffer: fails to evoke increases in [Ca^2+ ]i
